Experimental data published in patent US20260223849A1, “FUNGICIDAL COMBINATION” (UPL MAURITIUS LIMITED, priority 2023, published 2026).

Test system: Zymoseptoria tritici (Septoria tritici)
Assay: Efficacy against Zymoseptoria tritici (SEPTTR) on wheat, two applications (stages A and B)
Type: in vivo
Details: prothioconazole 520 mL/ha (130 g A/ha), fluxapyroxad 1424 mL/ha (89 g A/ha)
Procedure: The following formula was used to calculate the expected activity of mixtures containing active ingredients, A and B:
[formula] • where A=observed efficacy of active ingredient A at the same concentration as used in the mixture. • B=observed efficacy of active ingredient B at the same concentration as used in the mixture.
In the Colby method, the expected (or predicted) response of a combination of fungicides is calculated by taking the product of the observed response for each individual component of the combination when applied alone divided by 100 and subtracting this value from the sum of the observed response for each component when applied alone. An unexpected enhancement in efficacy of the combination is then determined by comparing the observed response of the combination to the expected (or predicted) response as calculated from the observed response of each individual component alone. If the observed response of the combination is greater than the expected (or predicted) response, or stated conversely, if the difference between the observed and expected response is greater than zero, then the combination is said to be synergistic or unexpectedly effective.
Efficacy of the combination of prothioconazole and fluxapyroxad was determined against Zymoseptoria tritici (Septoria tritici) in wheat crop. The actives prothioconazole and fluxapyroxad were tank mixed and applied as per the table below. Prothioconazole and fluxapyroxad were emulsifiable concentrate formulations with formulation concentrations of 250 g/L and 62.5 g/L, respectively. The applications were made twice at stages ‘A and ‘B’. Stage A was the time at which the first node was at least 1 cm above tillering node (Feekes 6.0=First node visible). Stage ‘B’ was the Flag leaf stage, wherein the flag leaf fully unrolled and ligule was visible (Feekes 9.0=Flag leaf). Applications were made at stage B which was 18 days after application A. The observations were made at 19 DA-A (19 days after application-A) as observed in table 1 (b) and at 23 DA-B (23 days after application B) as observed in Table 1 (c).

[1] = 19 DA-A (19 days after application A)
[2] = 23 DA-B (23 days after application B)

SMILES	% Observed Control of Septoria tritici [1]	% Observed Control of Septoria tritici [2]
Cn1cc(C(=O)Nc2ccccc2-c2cc(F)c(F)c(F)c2)c(C(F)F)n1 [Fluxapyroxad, 3-(difluoromethyl)-1-methyl-N-(3′,4′,5′-trifluorobiphenyl-2-yl) pyrazole-4-carboxamide]	25.6%	37.8%
OC(Cc1ccccc1Cl)(Cn1[nH]cnc1=S)C1(Cl)CC1 (stereo not shown) [Prothioconazole, 2-[2-(1-chlorocyclopropyl)-3-(2-chlorophenyl)-2-hydroxypropyl]-1,2-dihydro-3H-1,2,4-triazole-3-thione]	23.7%	20.0%
